Activity calls are given as the source filed them.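 How the source made its calls: active means caspase luminescence falls with dose and the half-maximal concentration AC50 from the fitted curve is at or below a set limit; inconclusive means flat fit at 30 to 70% signal loss, or invalid fit; inactive means AC50 above the limit, or signal rises instead.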
Each compound was assayed on INS-1E cytokine-induced caspase-3/7, Caspase-Glo luminescence, 48 h (assay: inhibitors of cytokine-induced caspase-3/7 activity, dose response, orthogonal assay for beta-cell apoptosis protection project, INS-1E rat cells, luminescence (AID 463206)).

| SMILES | AC50 |
| --- | --- |
| Cc1ccc(-c2nc(NC(=O)c3nn(C)cc3[N+](=O)[O-])sc2C)cc1 | > 26 µM (inactive) |
| CC[C@@H]1C/C=C\Cc2ccccc2[C@H](C(=O)C[C@@H](O)CC(C)=O)OC1=O | > 26 µM (inactive) |
| Cc1occc(=O)c1OC(=O)Nc1ccc(Cl)c(Cl)c1 | > 26 µM (inactive) |
| COc1cc(C(=O)NC(=S)NNC(=O)c2cnccn2)cc(OC)c1OC | > 26 µM (inactive) |
| CC(=O)N1c2ccc(S(=O)(=O)N3CCC(C(=O)N4CCN(c5cccc(C(F)(F)F)c5)CC4)CC3)cc2CC1C (stereo unspecified) | > 26 µM (inactive) |
| CCCCCc1ccc(OCCCC[n+]2ccccc2)c(CCCCC)c1 | > 26 µM (inactive) |
| Cc1ccc2nc(C)c(CN3CCN(c4ccc([N+](=O)[O-])cc4Cl)CC3)n2c1 | > 26 µM (inactive) |
| O=C(OCCOc1cccc(Cl)c1)c1cc(S(=O)(=O)N2CCCCC2)ccc1N1CCOCC1 | > 26 µM (inactive) |
| COc1ccc2[nH]c(C(=O)N/N=C/c3ccc(O)cc3O)cc2c1 | > 26 µM (inactive) |
| Cc1ccc(-c2cn(-c3ccccc3)c3[n+]2CCCS3)cc1 | > 26 µM (inactive) |
| O=C(Nc1nc2ccccc2s1)c1cc(-c2ccccc2)nn1-c1ccccc1 | > 26 µM (inactive) |
| Cc1ccc(/C=N/Nc2ccnc3cc(Cl)ccc23)c(C)c1 | > 12 µM (inactive) |
| COC(=O)c1ccccc1NC1=C/C(=N\S(=O)(=O)c2ccc(C(=O)O)cc2)c2ccccc2C1=O | > 26 µM (inactive) |
| CCOc1ccc(/C=N/Nc2ccc(Cl)nn2)c(O)c1 | > 26 µM (inactive) |
| O=C(c1cc(COc2cccc3cnccc23)on1)N1CCCC(CCCO)C1 (stereo unspecified) | > 26 µM (inactive) |
| CN(C)C(=O)c1ccc(NC(=O)c2cccnc2)cc1 | > 26 µM (inactive) |
| Cc1ccc2nc(-c3ccc(NC(=O)c4cccnc4)cc3)oc2c1 | > 26 µM (inactive) |
| COc1ccc(CCNc2ncnc3sccc23)cc1OC | > 26 µM (inactive) |
| Cc1nn(Cc2c(Cl)cccc2Cl)c(C)c1NC(=O)c1cn(-c2ccccc2)nc1-c1ccccc1 | > 26 µM (inactive) |
| Cc1ccc(-c2cn(-c3ccc(OC(F)F)cc3)c3[n+]2CCCCC3)cc1 | > 26 µM (inactive) |
| COc1cccc(/C=N/NC(=O)c2c(-c3ccccc3)noc2C)c1O | > 26 µM (inactive) |
| C/C(=N\Nc1nc(C)cc(-c2ccccc2)n1)c1ccc(F)cc1 | > 26 µM (inactive) |
| C/C(=N\NC(=O)c1cc(C)nc2ccccc12)c1ccccn1 | > 26 µM (inactive) |
| O=S(=O)(/C(=C/c1ccc(C(F)(F)F)cc1)c1nc2ccccc2[nH]1)c1ccccc1 | > 26 µM (inactive) |

| SMILES | AC50 |
| --- | --- |
| CCCCCCn1ccc(=N)cc1 | > 26 µM (inactive) |
| Oc1ccc(-[n+]2c(-c3ccccc3)cc(-c3ccccc3)cc2-c2ccccc2)cc1 | > 26 µM (inactive) |
| COc1ccc(/C=N/NC(=O)c2nc(-c3ccccc3)n(-c3ccccc3)n2)c(O)c1 | > 26 µM (inactive) |
| CCN1CCN(C2=C(NS(=O)(=O)c3ccccc3)C(=O)c3ccccc3C2=O)CC1 | > 26 µM (inactive) |
| Nc1ccc2c(c1)C(=O)C(=O)c1ccccc1-2 | > 26 µM (inactive) |
| CCCCOc1ccc(C(=O)NNC(=S)NC(=O)CC)cc1 | > 26 µM (inactive) |
| Nc1nc(F)nc2c1ncn2[C@@H]1O[C@H](CO)[C@@H](O)[C@H]1O | > 26 µM (inactive) |
| O=C(O)c1ccc(S(=O)(=O)/N=C2\C=C(Nc3ccccc3F)C(=O)c3ccccc32)cc1 | > 26 µM (inactive) |
| CCOC(=O)N1CCN(S(=O)(=O)c2ccc(C(=O)NNc3nc4c(C)cc(C)cc4s3)cc2)CC1 | > 26 µM (inactive) |
| c1ccc(N2CCN(CC3CCCCC3)CC2)cc1 | > 26 µM (inactive) |
| O=C(Nc1cc(Sc2ccccn2)cc([N+](=O)[O-])c1)c1ccc(Cl)cc1 | > 26 µM (inactive) |
| CCCCNc1c(-c2ccc(SC3CCCCC3)cc2)nc2ccccn12 | > 26 µM (inactive) |
| Cn1nccc1C(=O)NC1CCCc2c1cnn2-c1ccc(C(C)(C)C)cc1 (stereo unspecified) | > 26 µM (inactive) |
| O=C(NC(c1cccnc1)C(F)(F)F)c1cc(COc2ccc3c(c2)CCCC3)on1 (stereo unspecified) | > 26 µM (inactive) |
| Cc1ccc(NS(=O)(=O)c2cc([N+](=O)[O-])ccc2NNC(=S)Nc2cc(C)ccc2C)c(C)c1 | > 26 µM (inactive) |
| Cc1ccc2nc(N(CCCN(C)C)C(=O)c3ccc(S(=O)(=O)N4CCc5ccccc5C4)cc3)sc2c1 | > 26 µM (inactive) |
| O=C(Cc1ccccc1)N/N=C/c1ccc([N+](=O)[O-])s1 | > 26 µM (inactive) |
| COc1ccccc1NCC(=O)N/N=C/c1c(O)ccc2ccccc12 | > 26 µM (inactive) |
| COc1cccc(/C=N/Nc2ncnc(Cl)c2N)c1O | > 26 µM (inactive) |
| CC1=C(CC(=O)c2ccc(Cl)cc2)C(=O)c2ccccc2C1=O | > 26 µM (inactive) |
| COC(=O)c1sc(-c2ccc(C(C)(C)C)cc2)cc1NC(=O)/C=C/C(=O)O | > 26 µM (inactive) |
| O=C(COc1ccc2ccccc2c1)N1CCN(Cc2c[nH]c3ccccc23)CC1 | > 26 µM (inactive) |
| C#CCOCCOCCOCCNc1nc(N2CCN(C(=O)CCCCCCCCCCNC(=O)Cn3cc(C[C@@H](C)O)nn3)CC2)nc(N2CCN(C(=O)CCCCCCCCCCNC(=O)[C@@H]([C@H](C)CC)n3cc(CCCCCN)nn3)CC2)n1 | > 26 µM (inactive) |
| CCC1(OC(=O)CN)C(=O)OCc2c1cc1n(c2=O)Cc2cc3ccccc3nc2-1 (stereo unspecified) | 0.33 µM |

| SMILES | AC50 |
| --- | --- |
| COC(=O)C[C@]1(C(=O)OC)CN(C#N)N(c2ccc(Cl)cc2)C12c1ccccc1-c1ccccc12 | > 26 µM (inactive) |
| NC(=S)N/N=C/c1ccc(C23CC4CC(CC(C4)C2)C3)cc1 | > 26 µM (inactive) |
| O=c1nccc(N/N=C/c2ccccc2O)[nH]1 | > 26 µM (inactive) |
| Oc1ccc(CCNc2ncnc3ccc(Cl)cc23)cc1 | > 26 µM (inactive) |
| CCCCCCOc1ccc(CN2CCN(C)CC2)cc1 | > 26 µM (inactive) |
| C/C(=N\NC(=O)C(C)n1nc(C)c([N+](=O)[O-])c1C)c1ccccc1O (stereo unspecified) | > 26 µM (inactive) |
| c1ccc(CCNc2nc(-c3ccccn3)nc3ccccc23)cc1 | > 26 µM (inactive) |
| N#Cc1ccc(-c2ccc(Cl)cc2)nc1SCC(=O)c1cccc(Cl)c1 | > 26 µM (inactive) |
| O=c1cnnc(N/N=C/c2ccccn2)[nH]1 | > 26 µM (inactive) |
| CCn1c(=O)c([N+](=O)[O-])c(Cl)c2ccccc21 | > 26 µM (inactive) |
| CCCCNc1c(-c2ccc(-c3cccc(Cl)c3)cc2)nc2ccccn12 | > 26 µM (inactive) |
| CC1CCN(c2ccc(NC(=O)c3ccc([N+](=O)[O-])o3)cc2)CC1 | > 26 µM (inactive) |
| CCCCOc1cc(NCc2ccccc2)c2ncn(C(C)C)c2c1 | > 26 µM (inactive) |
| Oc1ccc2ccccc2c1N=Nc1ccccn1 | > 26 µM (inactive) |
| Cc1nc2ccccn2c1C(=O)/C=C/c1cccc([N+](=O)[O-])c1 | > 26 µM (inactive) |
| Cc1ccc(NS(=O)(=O)c2ccc(Cl)c(NC(=S)NC(=O)C3CCCCC3)c2)cc1Cl | > 26 µM (inactive) |
| O=C1C(=O)c2c(C(=O)c3ccccc3)coc2-c2ccccc21 | > 26 µM (inactive) |
| CC(C)C(=O)NC(c1ccccc1)c1cc([N+](=O)[O-])c2cccnc2c1O (stereo unspecified) | > 26 µM (inactive) |
| Clc1ccc(-c2[nH]ncc2N=Nc2ccccc2)cc1 | > 26 µM (inactive) |
| Cc1[nH]n(-c2ccccc2)c(=O)c1/C=N/NC(=O)COc1ccccc1[N+](=O)[O-] | > 26 µM (inactive) |
| C=CCc1cccc(/C=N/NC(=O)c2ccccc2OC)c1O | > 26 µM (inactive) |
| C=C[C@H](Cc1ccccc1)N(Cc1ccccc1)S(=O)(=O)N(Cc1ccccc1)[C@H](C=C)Cc1ccccc1 | > 26 µM (inactive) |
| CCOc1ccc(-n2c(=O)[nH]cc(C(=O)Nc3ccc(OC)c(OC)c3)c2=O)cc1 | > 26 µM (inactive) |
| O=C(NCCCn1ccnc1)c1ccc(-c2ccccc2)cc1 | > 26 µM (inactive) |

| SMILES | AC50 |
| --- | --- |
| CCC(C)(C)c1ccc(OCCCC[n+]2ccccc2)c(C(C)(C)CC)c1 | > 26 µM (inactive) |
| COc1ccc(OC)c2c1C(=O)C(Cl)=C(Cl)C2=O | > 26 µM (inactive) |
| C/C(=N/Nc1nc(-c2ccccc2)cc(-c2ccc(F)cc2)n1)c1cccc(N)c1 | > 26 µM (inactive) |
| C=CCN(CC=C)CC(O)Cn1c2ccccc2c2ccccc21 (stereo unspecified) | > 26 µM (inactive) |
| CCC1=NN(C(=O)c2cccc(Br)c2)C(O)(c2ccc(Br)cc2)C1 (stereo unspecified) | > 26 µM (inactive) |
| COc1ccc(/C=C/C(=O)c2ccc([N+](=O)[O-])o2)cc1OC | > 26 µM (inactive) |
| NC(=O)c1ccc(N2CCN(S(=O)(=O)c3cccs3)CC2)c([N+](=O)[O-])c1 | > 26 µM (inactive) |
| Cc1ccc(/C=C/C(=O)c2ccc([N+](=O)[O-])o2)cc1 | > 26 µM (inactive) |
| Cc1ccc(Nc2cc(C)nc(NCc3ccccc3)n2)cc1 | > 12 µM (inactive) |
| Clc1ccc2nnnc(-c3ccccc3)c2c1 | > 26 µM (inactive) |
| C=CCc1cccc(/C=N/NC(=O)CCC(=O)Nc2ccc(F)cc2)c1O | > 26 µM (inactive) |
| Cc1ccc(C)c(NS(=O)(=O)c2ccc(OCC(=O)NCc3cccnc3)cc2)c1 | > 26 µM (inactive) |
| O=C(C#Cc1ccccc1)Nc1cccc(F)c1 | > 26 µM (inactive) |
| Fc1ccc(CN(Cc2ccccc2)C(c2cccs2)c2nnnn2C2CCCCC2)cc1 (stereo unspecified) | > 26 µM (inactive) |
| CCOC(=O)c1c(NC(=O)C[n+]2ccc(Cc3ccccc3)cc2)sc(C)c1C | > 26 µM (inactive) |
| CN(C)CC(C(=O)c1ccccc1)c1ccccc1 (stereo unspecified) | > 26 µM (inactive) |
| OC(CNC1CCCCC1)COCCOc1ccc(Br)cc1 (stereo unspecified) | > 12 µM (inactive) |
| c1ccc(/N=C2\N=C(Nc3ccccn3)c3ccccc32)nc1 | > 26 µM (inactive) |
| CC[N+](C)(CC)CCC(c1ccccc1)C1CCCCC1 (stereo unspecified) | > 26 µM (inactive) |
| C[n+]1c2n(c3ccccc31)N=C(c1ccc(Cl)cc1)CS2 | > 26 µM (inactive) |
| CC(C)(C)OC(=O)N1CCC(CNC(=O)c2cccs2)CC1 | > 26 µM (inactive) |
| O=C(Nc1ccc2nc3n(c(=O)c2c1)CCCCC3)c1c(F)ccc([N+](=O)[O-])c1F | > 26 µM (inactive) |
| c1ccc2c(c1)ncn2CCCOc1ccc2c(c1)CCC2 | > 26 µM (inactive) |
| CCC(CNc1cc(OC)cc2cccnc12)NC1CCCCC1 (stereo unspecified) | > 26 µM (inactive) |
